These results are taken from the supplement of paper PMC6206229.

Each structure is given as a SMILES string. Values after ≈ are worked out from the molar mass of the structure shown. A value given as a limit tells only on which side of the number the result lay.

In test [1] the test system is Staphylococcus aureus ATCC 29213 (MSSA). Description: minimum inhibitory concentration; extreme values may be limits of the assay. The method, boiled down: (§1)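 The minimum inhibitory concentration was defined as the lowest concentration whose well remained blue rather than becoming pink. It was measured against methicillin-susceptible and methicillin-resistant Staphylococcus aureus by broth microdilution in 96-well plates according to CLSI guidance, with compounds at 0 to 100 µM incubated for 24 h at 37°C before 30 µl of 0.015% resazurin was added for 2–4 h. Each plate included positive controls.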

The subject of test [2] is Staphylococcus aureus ATCC 700699 (MRSA). The test is described as above. In short, it runs like this:
as §1

Consider `COc1cc2ncnc(NC3CCN(Cc4ccccc4)CC3)c2cc1OC`, for which the minimum inhibitory concentration in test [1] and in test [2] was greater than 50 µM each time.
In the case of `CCCCc1ccc(C(=O)Nc2nccc3ccccc23)nc1`, the minimum inhibitory concentration in test [1] and in test [2] was greater than 50 µM each time.
For `CO[C@@H](C(=O)N1Cc2[nH]nc(NC(=O)c3ccc(N4CCN(C)CC4)cc3)c2C1)c1ccccc1`, the minimum inhibitory concentration in test [1] and in test [2] was greater than 50 µM throughout.
For `Cc1cc(C)n(-c2ccc(NC(=O)C3CCN(Cc4cnc(C)s4)CC3)cc2)n1`, the minimum inhibitory concentration in test [1] and in test [2] was greater than 50 µM each time.
Turning to `CCS(=O)(=O)N(Cc1ccco1)Cc1cc2ccc(C)cc2nc1O`, the minimum inhibitory concentration in test [1] and in test [2] was greater than 50 µM in each case.
For the compound `CCc1ccccc1-n1c(C)cn2c3c(=O)n(C(C(=O)OC)C(C)C)c(=O)n(C)c3nc12` (stereo unspecified), the minimum inhibitory concentration in test [1] and in test [2] was greater than 50 µM each time.
`O=C(c1[nH]nc2c1CCCC2)N1CCN(Cc2ccc3c(c2)OCO3)CC1`: the minimum inhibitory concentration in test [1] and in test [2] was greater than 50 µM throughout.
`CN(C)CCNC(=O)N1CCCN(c2ncnc3cc(-c4ccccc4)sc23)CC1`: the minimum inhibitory concentration in test [1] and in test [2] was greater than 50 µM in each case.
As for `Cc1[nH]c2cc(F)cc(F)c2c(=O)c1-c1ccc(Oc2ccc(OC(F)(F)F)cc2)cc1`, the minimum inhibitory concentration in test [1] and in test [2] was greater than 50 µM in each case.
Turning to `c1ccc(Oc2ccc(-c3cc(N4CCOCC4)[nH]n3)cc2)cc1`, the minimum inhibitory concentration in test [1] and in test [2] was greater than 50 µM each time.
For `COc1cc(NC(C)CCCN)c2ncccc2c1` (stereo unspecified), the minimum inhibitory concentration in test [1] and in test [2] was greater than 50 µM each time.
For `CCN(CC)S(=O)(=O)c1ccc(Cl)c(C(=O)Nc2ccc3nc(C)sc3c2)c1`, the minimum inhibitory concentration in test [1] and in test [2] was greater than 50 µM throughout.
In the case of `FC(F)(F)c1ccc(N(c2cccnc2)C2CCN(c3ccc(C(F)(F)F)cn3)CC2)cc1`, the minimum inhibitory concentration in test [1] and in test [2] was greater than 50 µM each time.
On to `CC1(C)OB(O)c2ccc(C3=NOC(c4cc(Cl)c(F)c(Cl)c4)(C(F)(F)F)C3)cc21` (stereo unspecified), for which the minimum inhibitory concentration in test [1] and in test [2] was 6.25 µM (≈ 2.89 µg/mL) each time.
Take `Cc1nn2c(O)c3c(nc2c1-c1ccc(F)cc1)CCCC3`: the minimum inhibitory concentration in test [1] and in test [2] was greater than 50 µM throughout.
In the case of `CC(=O)OCC1OC([S-])C(OC(C)=O)C(OC(C)=O)C1OC(C)=O.CCP(CC)CC.[Au+]` (stereo unspecified), the values for the minimum inhibitory concentration in test [1] and in test [2] were 0.39 µM and 0.78 µM, respectively.
In the case of `Cc1cc(C)cc(COc2ccc3c(C)c(CCC(=O)O)c(=O)oc3c2C)c1`, the minimum inhibitory concentration in test [1] and in test [2] was greater than 50 µM throughout.
As for `COc1ccc(OC(C)C(=O)Nc2ccc(Cl)cc2C)cc1` (stereo unspecified), the minimum inhibitory concentration in test [1] and in test [2] was greater than 50 µM in each case.
As for `COc1cccn2c(C(=O)N3CCCCC3)c(C(F)(F)F)nc12`, the minimum inhibitory concentration in test [1] and in test [2] was greater than 50 µM each time.
For `COc1ccccc1OCCCCn1c(C2CC2)nc2ccccc21`, the minimum inhibitory concentration in test [1] and in test [2] was greater than 50 µM each time.
On to `CC(C(=O)Nc1ccc2oc(-c3ccncc3)nc2c1)c1ccccc1` (stereo unspecified), for which the minimum inhibitory concentration in test [1] and in test [2] was greater than 50 µM throughout.
For `CCc1ccc(C(NCc2nc(N)nc(N(C)C)n2)C(C)C)cc1` (stereo unspecified), the minimum inhibitory concentration in test [1] and in test [2] was greater than 50 µM throughout.
Regarding `Cc1nn2c(=O)c3c([nH]c2c1-c1ccc(Cl)cc1)CCCC3`, the minimum inhibitory concentration in test [1] and in test [2] was greater than 50 µM throughout.
Consider `COc1cccc(OCC(=O)c2ccc(Br)cc2)c1`, for which the minimum inhibitory concentration in test [1] and in test [2] was greater than 50 µM throughout.
Consider `O=C(C1CCCCC1)N1CC(=O)N2CCc3ccccc3C2C1` (stereo unspecified), for which the minimum inhibitory concentration in test [1] and in test [2] was greater than 50 µM each time.
On to `NC(CC(=O)c1ccc(Cl)cc1Cl)C(Cl)(Cl)Cl` (stereo unspecified), for which the minimum inhibitory concentration in test [1] and in test [2] was greater than 50 µM each time.
Take `Clc1ccc(CN2CCN(C3=NCCN3)CC2)cc1Cl`: the minimum inhibitory concentration in test [1] and in test [2] was greater than 50 µM throughout.
Regarding `N#Cc1nc(-c2ccccc2F)oc1NCCc1ccccc1`, the minimum inhibitory concentration in test [1] and in test [2] was greater than 50 µM throughout.
In the case of `Cc1ccc(NC(=O)c2nc[nH]c2C(=O)Nc2nc3ccccc3[nH]2)c(C)c1`, the minimum inhibitory concentration in test [1] and in test [2] was greater than 50 µM throughout.
Regarding `CC(C)n1ncc2c(C(=O)NCC(c3cccs3)N3CCOCC3)cc(-c3ccccc3)nc21` (stereo unspecified), the minimum inhibitory concentration in test [1] and in test [2] was greater than 50 µM in each case.
`N#Cc1nc(-c2ccccc2)oc1S(=O)(=O)c1ccc(Cl)cc1`: the minimum inhibitory concentration in test [1] and in test [2] was greater than 50 µM in each case.
As to `NS(=O)(=O)c1cncc(-c2ccc3nccc(-c4cn[nH]c4)c3n2)c1`, the minimum inhibitory concentration in test [1] and in test [2] was greater than 50 µM throughout.
As for `O=C(Nc1nc(-c2ccccn2)cs1)c1cncn1-c1ccccc1`, the minimum inhibitory concentration in test [1] and in test [2] was greater than 50 µM in each case.
Regarding `CN1CCN(S(=O)(=O)c2ccc(-c3ccc4c(Nc5ccc6nn[nH]c6c5)ccnc4c3)cc2)CC1`, the minimum inhibitory concentration in test [1] and in test [2] was greater than 50 µM each time.
Regarding `CNC(=O)c1cc(S(=O)(=O)N2CCN(c3ccccn3)CC2)cs1`, the minimum inhibitory concentration in test [1] and in test [2] was greater than 50 µM throughout.
`CCN(CC)CCCN1CCN(C(=O)c2cccc(-c3noc(C(F)(F)F)n3)c2)CC1`: the minimum inhibitory concentration in test [1] and in test [2] was greater than 50 µM throughout.
Regarding `O=C1N(Cc2cc3ccccc3s2)CC2CN(Cc3ccccc3)CCN12` (stereo unspecified), the minimum inhibitory concentration in test [1] and in test [2] was greater than 50 µM in each case.
Take `COc1ccc(-c2cncc3ccc(C(=O)NCCCn4ccnc4)nc23)cc1`: the minimum inhibitory concentration in test [1] and in test [2] was greater than 50 µM throughout.
For the compound `C[C@H](C(N)=O)N1CCCC[C@H]1c1ccc(OCc2cccc(F)c2)cc1`, the minimum inhibitory concentration in test [1] and in test [2] was greater than 50 µM each time.
`COc1cc(C2=NCCN2)ccc1-n1cc(-c2cccc(C3=NCCN3)c2)nn1`: the minimum inhibitory concentration in test [1] and in test [2] was greater than 50 µM in each case.
Regarding `Oc1c(I)cc(I)c2cccnc12`, the figures for the minimum inhibitory concentration in test [1] and in test [2] were greater than 50 µM and 50 µM (≈ 19.8 µg/mL), respectively.
With `N=C(N)c1ccc(OCCCCCOc2ccc(C(=N)N)cc2)cc1`, the minimum inhibitory concentration was 12.5 µM (≈ 4.26 µg/mL) in test [1] and greater than 50 µM in test [2].
As to `Cc1noc(C)c1COc1cccc(C(=O)N=c2[nH]cccc2C)c1`, the minimum inhibitory concentration in test [1] and in test [2] was greater than 50 µM throughout.
As to `NCCC(O)C(=O)N[C@@H]1C[C@H](N)[C@@H](OC2O[C@H](CN)[C@@H](O)[C@H](O)[C@H]2O)[C@H](O)C1OC1O[C@H](CO)[C@@H](O)[C@H](N)[C@H]1O` (stereo partly specified), the minimum inhibitory concentration in test [1] and in test [2] was greater than 50 µM throughout.
`CC(C(=O)N1CCCC1)N1CCN(S(=O)(=O)c2ccc(C(C)(C)C)cc2)CC1` (stereo unspecified): the minimum inhibitory concentration in test [1] and in test [2] was greater than 50 µM each time.
Regarding `COc1cccc(-n2nnnc2S(C)(=O)=O)c1`, the minimum inhibitory concentration in test [1] and in test [2] was greater than 50 µM each time.
For `O=C(C(Cc1c[nH]c2ccccc12)NS(=O)(=O)c1ccc(Cl)cc1)N1CCCCC1` (stereo unspecified), the minimum inhibitory concentration in test [1] and in test [2] was greater than 50 µM in each case.
Regarding `COc1ccc(Oc2ccc([C@@H](C)N(C)c3ncc4c(N)nc(N)nc4n3)cc2)cc1`, the minimum inhibitory concentration in test [1] and in test [2] was greater than 50 µM each time.
Take `CC(C)(C)n1nc(Cc2ccc(F)c(Cl)c2)c2c(N)ncnc21`: the minimum inhibitory concentration in test [1] and in test [2] was greater than 50 µM each time.
As for `Cc1cccc(-c2nc(Nc3ccncn3)c3sccc3n2)n1`, the minimum inhibitory concentration in test [1] and in test [2] was greater than 50 µM each time.
As to `C[C@H]1COc2c(N3CCN(C)CC3)c(F)cc3c(=O)c(C(=O)O)cn1c23`, the results for the minimum inhibitory concentration in test [1] and in test [2] were 0.78 µM (≈ 0.282 µg/mL) and 50 µM (≈ 18.1 µg/mL), respectively.
Regarding `COc1cc(Br)cc2cc(C(=O)Nc3cccc(C(F)(F)F)c3)c(=O)oc12`, the minimum inhibitory concentration in test [1] and in test [2] was greater than 50 µM throughout.
`O=C(NCc1nnc2n1CCCCC2)c1ccc(-c2ccc(F)cc2)o1`: the minimum inhibitory concentration in test [1] and in test [2] was greater than 50 µM in each case.
On to `CC(=O)N(CCN(C(=O)c1ccc(F)cc1)c1ccccc1)c1ccccc1`, for which the minimum inhibitory concentration in test [1] and in test [2] was greater than 50 µM each time.
On to `O=S(=O)(c1ccc(Cl)cc1)N1CCN(C(=S)NCc2ccco2)CC1`, for which the minimum inhibitory concentration in test [1] and in test [2] was greater than 50 µM each time.
For the compound `Nc1nccc2ccc(Oc3ccncc3)cc12`, the minimum inhibitory concentration in test [1] and in test [2] was 50 µM (≈ 11.9 µg/mL) each time.
For the compound `CC(=O)Nc1ccc(-c2noc(CC3CCCN(Cc4cccc(F)c4C)C3)n2)cc1` (stereo unspecified), the minimum inhibitory concentration in test [1] and in test [2] was greater than 50 µM each time.
`CC(C)(C)c1cc(C(=O)Nc2cccnc2)cc(C(=O)Nc2cccnc2)c1`: the minimum inhibitory concentration in test [1] and in test [2] was greater than 50 µM each time.
